Measured values from ChEMBL document CHEMBL1201862, “PubChem BioAssay data set” (2004).
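Values below derive from 48-hour exposures of cells grown in 96-well plates, with endpoints linearly interpolated between the two concentrations bracketing the appropriate inhibition level. GI50: concentration for 50% inhibition of growth.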 Active and inactive are the calls of the source. Cut-off read from the data, not from the text of the source: active = GI50 up to about 1.1 µM and inactive = higher.

Assays:
Experiment in all cases: NCI anticancer screen, dose series, 48 h
SNB-75 = test system: SNB-75
OVCAR-5 = test system: OVCAR-5
SF-268 = test system: SF-268
HOP-62 = test system: HOP-62
UO-31 = test system: UO-31
SN12C = test system: SN12C
TK-10 = test system: TK-10
NCI-H460 = test system: NCI-H460
COLO 205 = test system: COLO 205
SK-MEL-5 = test system: SK-MEL-5
UACC-257 = test system: UACC-257
SNB-19 = test system: SNB-19
HCT-116 = test system: HCT-116
RXF 393 = test system: RXF 393
ACHN = test system: ACHN
HCC 2998 = test system: HCC 2998
RPMI-8226 = test system: RPMI-8226
SR = test system: SR

Structure (SMILES)	GI50 (SNB-75)	GI50 (OVCAR-5)	GI50 (SF-268)	GI50 (HOP-62)	GI50 (UO-31)	GI50 (SN12C)	GI50 (TK-10)	GI50 (NCI-H460)	GI50 (COLO 205)	GI50 (SK-MEL-5)	GI50 (UACC-257)	GI50 (SNB-19)	GI50 (HCT-116)	GI50 (RXF 393)	GI50 (ACHN)	GI50 (HCC 2998)	GI50 (RPMI-8226)	GI50 (SR)
CC(=O)Nc1ccc(C(=O)NN2C(=O)C(Cl)C2c2ccccc2O)cc1 (centres undefined)	36.8 µM (inactive)	> 100 µM (inactive)	84.7 µM (inactive)	14.2 µM (inactive)	34.4 µM (inactive)	> 100 µM (inactive)	51.4 µM (inactive)	6.81 µM (inactive)	45.2 µM (inactive)	> 100 µM (inactive)	> 100 µM (inactive)	36.6 µM (inactive)	> 100 µM (inactive)	24.1 µM (inactive)	> 100 µM (inactive)	–	–	–
CCN1CCC(O)(c2ccc(Cl)c(Cl)c2)C(C(=O)c2ccc(Cl)c(Cl)c2)C1 (centres undefined)	14.3 µM (inactive)	19.2 µM (inactive)	18.2 µM (inactive)	18.3 µM (inactive)	17.3 µM (inactive)	17.8 µM (inactive)	16.5 µM (inactive)	21.3 µM (inactive)	16.9 µM (inactive)	16.9 µM (inactive)	18.2 µM (inactive)	19.7 µM (inactive)	18.5 µM (inactive)	–	13.3 µM (inactive)	19.9 µM (inactive)	1.65 µM (inactive)	–
CCOC(=O)/C(=C/c1cccc(C#N)c1)N(CC)CC	> 100 µM (inactive)	> 100 µM (inactive)	> 100 µM (inactive)	> 100 µM (inactive)	> 100 µM (inactive)	> 100 µM (inactive)	> 100 µM (inactive)	> 100 µM (inactive)	> 100 µM (inactive)	> 100 µM (inactive)	> 100 µM (inactive)	–	> 100 µM (inactive)	–	> 100 µM (inactive)	> 100 µM (inactive)	> 100 µM (inactive)	> 100 µM (inactive)
N=C1NC2(O)C(=O)c3ccccc3C2(O)N1 (centres undefined)	> 100 µM (inactive)	> 100 µM (inactive)	> 100 µM (inactive)	> 100 µM (inactive)	–	> 100 µM (inactive)	> 100 µM (inactive)	> 100 µM (inactive)	> 100 µM (inactive)	> 100 µM (inactive)	> 100 µM (inactive)	> 100 µM (inactive)	> 100 µM (inactive)	> 100 µM (inactive)	> 100 µM (inactive)	–	> 100 µM (inactive)	> 100 µM (inactive)
O=C(c1ccc(Cl)cc1)N(C(=S)N1CCN(c2ccccn2)CC1)c1ccccc1	> 100 µM (inactive)	> 100 µM (inactive)	> 100 µM (inactive)	> 100 µM (inactive)	68.9 µM (inactive)	> 100 µM (inactive)	> 100 µM (inactive)	> 100 µM (inactive)	> 100 µM (inactive)	39.6 µM (inactive)	> 100 µM (inactive)	> 100 µM (inactive)	97.5 µM (inactive)	15.6 µM (inactive)	> 100 µM (inactive)	–	82.4 µM (inactive)	39.3 µM (inactive)
C=CCC(O)c1cc(OC)ccc1OC (centres undefined)	> 100 µM (inactive)	> 100 µM (inactive)	> 100 µM (inactive)	> 100 µM (inactive)	> 100 µM (inactive)	> 100 µM (inactive)	> 100 µM (inactive)	> 100 µM (inactive)	> 100 µM (inactive)	> 100 µM (inactive)	> 100 µM (inactive)	> 100 µM (inactive)	–	> 100 µM (inactive)	> 100 µM (inactive)	> 100 µM (inactive)	> 100 µM (inactive)	–
C=CC/N=C1\NC(=O)C(CC(=O)Nc2ccc(C)cc2)S1 (centres undefined)	> 100 µM (inactive)	> 100 µM (inactive)	> 100 µM (inactive)	> 100 µM (inactive)	> 100 µM (inactive)	> 100 µM (inactive)	> 100 µM (inactive)	> 100 µM (inactive)	> 100 µM (inactive)	> 100 µM (inactive)	–	> 100 µM (inactive)	–	> 100 µM (inactive)	> 100 µM (inactive)	> 100 µM (inactive)	> 100 µM (inactive)	–
c1ccc(CN2CCCCC(Sc3ccccc3)CC2)cc1 (centres undefined)	30.5 µM (inactive)	18.3 µM (inactive)	> 100 µM (inactive)	64.4 µM (inactive)	15.3 µM (inactive)	24.7 µM (inactive)	58.7 µM (inactive)	20.2 µM (inactive)	13.4 µM (inactive)	18.7 µM (inactive)	> 100 µM (inactive)	34 µM (inactive)	27.2 µM (inactive)	–	47.3 µM (inactive)	16 µM (inactive)	17.8 µM (inactive)	17.8 µM (inactive)
C[C@]12CC(C#N)C(=O)C(O)=C1CC[C@@H]1C2CC[C@@]2(C)C1CC[C@@H]2O (some centres undefined)	9.91 µM (inactive)	27.3 µM (inactive)	41.7 µM (inactive)	80.4 µM (inactive)	10.1 µM (inactive)	60 µM (inactive)	27.1 µM (inactive)	41.8 µM (inactive)	48.5 µM (inactive)	26.3 µM (inactive)	71.1 µM (inactive)	83.4 µM (inactive)	41.1 µM (inactive)	19.1 µM (inactive)	47.2 µM (inactive)	> 100 µM (inactive)	7 µM (inactive)	–
COc1ccc(C2=NN(c3ccccc3)C[N+](c3ccc(C)cc3)=N2)cc1	–	29.9 µM (inactive)	70.6 µM (inactive)	> 100 µM (inactive)	38.3 µM (inactive)	66.5 µM (inactive)	> 100 µM (inactive)	65.5 µM (inactive)	31.3 µM (inactive)	> 10 µM (inactive)	> 100 µM (inactive)	34.1 µM (inactive)	35.1 µM (inactive)	19.5 µM (inactive)	50.2 µM (inactive)	> 100 µM (inactive)	26.9 µM (inactive)	34 µM (inactive)
CN(C)P(=O)(/C(N)=N/Nc1ccc([N+](=O)[O-])cc1)N(C)C	> 100 µM (inactive)	> 100 µM (inactive)	> 100 µM (inactive)	> 100 µM (inactive)	> 100 µM (inactive)	> 100 µM (inactive)	> 100 µM (inactive)	> 100 µM (inactive)	> 100 µM (inactive)	> 100 µM (inactive)	> 100 µM (inactive)	> 100 µM (inactive)	> 100 µM (inactive)	–	> 100 µM (inactive)	> 100 µM (inactive)	> 100 µM (inactive)	> 100 µM (inactive)
c1cncc(C2c3[nH]c4ccccc4c3CCN2CCN2CCCCC2)c1 (centres undefined)	43.6 µM (inactive)	> 100 µM (inactive)	> 100 µM (inactive)	> 100 µM (inactive)	38.3 µM (inactive)	> 100 µM (inactive)	> 100 µM (inactive)	> 100 µM (inactive)	–	> 100 µM (inactive)	32.9 µM (inactive)	> 100 µM (inactive)	> 100 µM (inactive)	–	> 100 µM (inactive)	> 100 µM (inactive)	62.8 µM (inactive)	> 100 µM (inactive)
CC12CCC(=O)N1c1cccnc1N2 (centres undefined)	> 100 µM (inactive)	> 100 µM (inactive)	> 100 µM (inactive)	> 100 µM (inactive)	> 100 µM (inactive)	> 100 µM (inactive)	> 100 µM (inactive)	> 100 µM (inactive)	> 100 µM (inactive)	> 100 µM (inactive)	> 100 µM (inactive)	–	–	> 100 µM (inactive)	> 100 µM (inactive)	> 100 µM (inactive)	> 100 µM (inactive)	–
COC1C(OC(=O)c2ccc(C)[nH]2)C(O)C(Oc2ccc3c(O)c(NC(=O)c4c[nH]c(C(=O)Nc5c(O)c6ccc(OC7OC(C)(C)C(OC)C(OC(=O)c8ccc(C)[nH]8)C7O)c(C)c6oc5=O)c4C)c(=O)oc3c2C)OC1(C)C (centres undefined)	0.708 µM (active)	2.84 µM (inactive)	0.67 µM (active)	–	1.45 µM (inactive)	1.54 µM (inactive)	4.86 µM (inactive)	1.88 µM (inactive)	1.87 µM (inactive)	2.61 µM (inactive)	3.95 µM (inactive)	0.693 µM (active)	–	0.794 µM (active)	2.53 µM (inactive)	2.59 µM (inactive)	1.53 µM (inactive)	–
CC(O)c1ccc[n+](Cc2ccccc2)c1 (centres undefined)	–	> 400 µM (inactive)	> 400 µM (inactive)	> 400 µM (inactive)	–	> 400 µM (inactive)	> 400 µM (inactive)	> 400 µM (inactive)	> 400 µM (inactive)	> 400 µM (inactive)	> 400 µM (inactive)	> 400 µM (inactive)	> 400 µM (inactive)	> 400 µM (inactive)	> 400 µM (inactive)	> 400 µM (inactive)	> 400 µM (inactive)	> 400 µM (inactive)
CCOC(=O)C(C(=O)OCC)S(C)(=O)=O	–	> 100 µM (inactive)	–	> 100 µM (inactive)	> 100 µM (inactive)	> 100 µM (inactive)	> 100 µM (inactive)	> 100 µM (inactive)	> 100 µM (inactive)	> 100 µM (inactive)	> 100 µM (inactive)	> 100 µM (inactive)	> 100 µM (inactive)	> 100 µM (inactive)	> 100 µM (inactive)	> 100 µM (inactive)	> 100 µM (inactive)	> 100 µM (inactive)
COC(=O)c1cc2cc(OC)c(OC)cc2cc(C(=O)OC)c1=O	> 100 µM (inactive)	> 100 µM (inactive)	> 100 µM (inactive)	> 100 µM (inactive)	> 100 µM (inactive)	> 100 µM (inactive)	> 100 µM (inactive)	> 100 µM (inactive)	> 100 µM (inactive)	> 100 µM (inactive)	> 100 µM (inactive)	> 100 µM (inactive)	> 100 µM (inactive)	> 100 µM (inactive)	> 100 µM (inactive)	> 100 µM (inactive)	> 100 µM (inactive)	–
